Data: BindingDB's records for doi:10.7270/Q2CN728N (Nmmlsc, 2008)

target: T1, Bcl-2-related protein A1 (Homo sapiens, UniProt Q16548); assay: inhibitors of Bim binding to Bfl-1, dose response, biochemical, multiplexed, bead-based flow cytometry (AID 1320); conditions: inactive by the depositor's call; pH 7.4; 4 °C
T1 sequence (Q16548 whole entry): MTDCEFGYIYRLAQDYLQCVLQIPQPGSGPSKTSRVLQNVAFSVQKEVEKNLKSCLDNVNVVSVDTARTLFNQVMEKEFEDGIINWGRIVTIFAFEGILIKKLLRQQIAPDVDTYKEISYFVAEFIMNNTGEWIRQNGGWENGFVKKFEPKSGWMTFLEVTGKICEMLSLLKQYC

Q: For `COc1ccc(OC)c(-n2c(S)nnc2-c2ccc(C)cc2)c1` [SMR000155418], which EC50 is on record?
A: The EC50 was 3.05 µM.

Q: With `Nc1ccc(C2=Nc3cccc4cccc(c34)N2)cc1` [SMR000175908] as the molecule, how does the EC50 read?
A: Its EC50 is 16.1 µM.

Q: Which EC50 does the source give for `S=c1[nH]cc(-c2ccccc2)n1-c1ccccc1` [SMR000196363] here?
A: Its EC50 is 1.92 µM.

Q: For `CCC(=O)OCCNc1cc(Sc2nccn2C)c2nonc2c1[N+](=O)[O-]` [SMR000207033], which EC50 is on record?
A: Its EC50 is 26.8 µM.

Q: With `CCN1C(=O)/C(=C\C=C2/C=CC=CN2CC)SC1=S` [SMR000225150] as the molecule, how does the EC50 read?
A: The EC50 was 4.01 µM.

Q: `CNc1ccc(Br)cc(C(=O)/C=C/c2ccc(OC)cc2)c1=O` [SMR000229850] was tested. Which EC50 did it give?
A: Its EC50 is 15 µM.

Q: `CCN(CC)c1ccc(NC(=O)c2ccccc2F)cc1S(=O)(=O)Nc1ccccc1OC` [SMR000241522] was tested. Which EC50 did it give?
A: Its EC50 is 12.2 µM.

Q: How did the EC50 turn out when `O=C1c2ccccc2-c2onc3ccc(N4CCCC4)c1c23` [SMR000279741] was run?
A: Its EC50 is 24.8 µM.

Q: With `COc1ccccc1-n1c(-c2cc(-c3ccc(F)cc3)[nH]n2)n[nH]c1=S` [SMR000293072] as the molecule, how does the EC50 read?
A: Its EC50 is 5.04 µM.

Q: `COc1cc(OC)c([N+](=O)[O-])cc1[CH+][N-]NC(=O)c1ccncc1` [SMR000306621] was tested. Which EC50 did it give?
A: Its EC50 is 42.3 µM.

Q: How did the EC50 turn out when `O=c1c2c(-c3ccccc3)csc2nc2c3ccccc3c(NCCN3CCOCC3)nn12` [SMR000352519] was run?
A: The EC50 was 30.3 µM.

Q: `CCOC(=O)CSC1=NC(=O)/C(=C/c2ccc(Br)cc2)S1` [ethyl 2-[[(5Z)-5-[(4-bromophenyl)methylidene]-4-oxo-1,3-thiazol-2-yl]sulfanyl]acetate] was tested. Which EC50 did it give?
A: The EC50 was 0.55 µM.

same assay, conditions: pH 7.4; 4 °C

Q: Which EC50 does the source give for `O=C(Nc1cccc(C(F)(F)F)c1)c1ccc2nc(-c3ccco3)c(-c3ccco3)nc2c1` [SMR000142217] here?
A: Its EC50 is 2.96 µM.

Q: For `COC(=O)c1c(C(=O)OC)c2cccc3cc(-c4ccccc4)c4ccc1c4n32` [SMR000161417], which EC50 is on record?
A: Its EC50 is 1.12 µM.

Q: Which EC50 does the source give for `O=c1[nH]c2ccc(N=Cc3c(O)ccc4cc(Br)ccc34)cc2[nH]1` [SMR000171789] here?
A: Its EC50 is 4.46 µM.

Q: `CCOC(=O)CSC1=NC(=O)/C(=C\c2ccc(OC(C)=O)cc2)S1` [SMR000180755] was tested. Which EC50 did it give?
A: Its EC50 is 3.33 µM.

Q: For `C#CCn1cc(C=C2C(=O)c3ccccc3C2=O)c2ccccc21` [SMR000196125], which EC50 is on record?
A: Its EC50 is 9.57 µM.

Q: `CCC(=O)OCCNc1cc(Sc2nc3ccccc3[nH]2)c2nonc2c1[N+](=O)[O-]` [SMR000207032] was tested. Which EC50 did it give?
A: Its EC50 is 1.63 µM.

Q: For `Cc1ccc(-c2nc(N3CCOCC3)s[n+]2-c2ccccc2)cc1` [SMR000225370], which EC50 is on record?
A: Its EC50 is 0.02 µM.

Q: With `CNCc1ccccc1Sc1ccc(O)c(O)c1` [SMR000230497] as the molecule, how does the EC50 read?
A: Its EC50 is 31.7 µM.

Q: For `Oc1ccc(NCc2ccccc2OCc2ccccc2)cc1` [SMR000231540], which EC50 is on record?
A: Its EC50 is 1.12 µM.

Q: `CN=c1scc(-c2cccs2)n1N=Cc1ccc(O)c(O)c1O` [SMR000242177] was tested. Which EC50 did it give?
A: The EC50 was 5.71 µM.

Q: Which EC50 does the source give for `Nc1c(C(=O)NCC2CCCO2)sc2nc3c(c(-c4ccco4)c12)CC/C3=C\c1ccco1` (stereo not drawn) [SMR000259502] here?
A: Its EC50 is 0.87 µM.

Q: With `Nc1c(C(=O)NC2CC2)sc2nc3c(c(-c4ccco4)c12)CC/C3=C/c1ccco1` [SMR000259554] as the molecule, how does the EC50 read?
A: The EC50 was 1.09 µM.

Q: `Cc1nc2scc(-c3ccccc3)c2c(=O)n1N=C1C=CC(=O)C=C1` [SMR000285999] was tested. Which EC50 did it give?
A: Its EC50 is 0.56 µM.

Q: Which EC50 does the source give for `C=C[S+]([O-])c1sc(Cl)c(N2CCOCC2)c1[N+](=O)[O-]` (stereo not drawn) [SMR000293370] here?
A: Its EC50 is 0.85 µM.

Q: `CC1CC(=Cc2cccc(F)c2)C2=NC(=S)NC(c3cccc(F)c3)C2C1` (stereo not drawn) [SMR000306148] was tested. Which EC50 did it give?
A: The EC50 was 15.2 µM.

Q: `CC(=NNC(=O)c1cc(O)c(O)c(O)c1)c1ccc([N+](=O)[O-])cc1` [SMR000312589] was tested. Which EC50 did it give?
A: Its EC50 is 6.78 µM.

Q: For `O=C(O)c1ccc(NC2=CC(=NS(=O)(=O)c3ccccc3)c3ccccc3C2=O)cc1` [SMR000313157], which EC50 is on record?
A: The EC50 was 9.21 µM.

Q: `CCN1/C(=C/C(C)=C/c2sc3ccccc3[n+]2CC)Sc2ccccc21` [SMR000354813] was tested. Which EC50 did it give?
A: The EC50 was 41.1 µM.

Q: `CCN(CC)C(=O)COC(=O)c1cc(-c2ccco2)nc2ccccc12` [SMR000377201] was tested. Which EC50 did it give?
A: Its EC50 is 1.03 µM.

Q: How did the EC50 turn out when `Cn1c(=O)c(C(=O)COC(=O)c2cc(-c3ccco3)nc3ccccc23)c(N)n(Cc2ccccc2)c1=O` [[2-(6-amino-1-benzyl-3-methyl-2,4-dioxopyrimidin-5-yl)-2-oxoethyl] 2-(furan-2-yl)quinoline-4-carboxylate] was run?
A: The EC50 was 1.77 µM.

Q: How did the EC50 turn out when `CCOC(=O)C1=C(Cc2ccc(C)cc2)C(=O)c2ccccc2C1=O` [ethyl 3-[(4-methylphenyl)methyl]-1,4-bis(oxidanylidene)naphthalene-2-carboxylate] was run?
A: The EC50 was 3.2 µM.
